From article PMC6779907, “Bengamides display potent activity against drug-resistant Mycobacterium tuberculosis” (Scientific Reports, 2019)

How the values were obtained:
Assay type in all cases: biochemical
HsMetAP1b [1] = target: T1, HsMetAP1b (Homo sapiens, UniProt P53582); assay: fluorescence, hydrolysis of methionyl aminomethylcoumarin
T1 construct: gene METAP1; expressed in E. coli and purified

MtMetAP1c [2] = target: T2, MtMetAP1c (Mycobacterium tuberculosis, UniProt P9WK19); assay: as above
T2 construct: gene map
T2 sequence (P9WK19 whole entry, looked up): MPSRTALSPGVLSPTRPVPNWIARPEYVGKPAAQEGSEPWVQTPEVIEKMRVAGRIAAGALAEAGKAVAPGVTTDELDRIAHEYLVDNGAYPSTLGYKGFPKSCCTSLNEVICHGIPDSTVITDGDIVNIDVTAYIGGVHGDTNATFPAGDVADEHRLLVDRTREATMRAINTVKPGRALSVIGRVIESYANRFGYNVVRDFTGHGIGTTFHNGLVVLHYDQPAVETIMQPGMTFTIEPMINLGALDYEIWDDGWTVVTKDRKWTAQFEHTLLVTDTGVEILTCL

EfMetAP1b [3] = target: T3, EfMetAP1b (Enterococcus faecalis, UniProt Q832M5); assay: as above
T3 construct: gene map; expressed in E. coli and purified
T3 sequence (Q832M5 1-254): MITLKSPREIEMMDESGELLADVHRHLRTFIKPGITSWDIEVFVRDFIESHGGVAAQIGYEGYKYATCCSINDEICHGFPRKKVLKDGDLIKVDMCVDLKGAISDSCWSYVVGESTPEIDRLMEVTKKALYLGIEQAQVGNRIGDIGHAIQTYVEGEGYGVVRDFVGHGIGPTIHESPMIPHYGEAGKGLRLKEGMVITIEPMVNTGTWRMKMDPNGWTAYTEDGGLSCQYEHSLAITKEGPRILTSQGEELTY

MtMetAP1c [4] = target: T2, MtMetAP1c; settings: room temperature; metal not given
EfMetAP1b [5] = target: T3, EfMetAP1b; assay: fluorescence, substrate hydrolysis; settings: room temperature; metal not given
HsMetAP1b [6] = target: T1, HsMetAP1b; assay: fluorescence, substrate hydrolysis; settings: room temperature; metal not given

Structure (SMILES)	inhibition at 50 µM (HsMetAP1b [1]) [%]	inhibition at 50 µM (MtMetAP1c [2]) [%]	inhibition at 50 µM (EfMetAP1b [3]) [%]	fluorescence, substrate hydrolysis (MtMetAP1c [4])	fluorescence, substrate hydrolysis (EfMetAP1b [5])	fluorescence, substrate hydrolysis (HsMetAP1b [6])
CCCCCCCCCCCCCC(=O)O[C@H]1CC[C@H](NC(=O)[C@H](OC)[C@H](O)[C@@H](O)[C@H](O)/C=C/C(C)C)C(=O)N(C)C1 [F12, bengamide B]	84.7	72.8	83.3			
CSCC[C@H](N)C(=O)Nc1ccc2c(C)cc(=O)oc2c1 [methionyl aminomethylcoumarin]				enzymatic activity was monitored by fluorescence readings following hydrolysis of the fluorogenic substrate, methionyl aminomethylcoumarin	enzymatic activity was monitored by fluorescence readings following hydrolysis of the fluorogenic substrate, methionyl aminomethylcoumarin	enzymatic activity was monitored by fluorescence readings following hydrolysis of the fluorogenic substrate, methionyl aminomethylcoumarin
